Test results as given in patent publication US20120316105A1, “Polymyxin Derivates Useful As Antibacterial Agents” (priority 2011, published 2012).
Bridge positions count the residues as written; N and C are the ends. Square brackets hold non-standard residues; d marks the D form. Peptide text beside a SMILES is read from it. * marks the point of attachment. Isonicotinoyl(2-Ph) = O=C(c1ccnc(-c2ccccc2)c1)*; X18 = N#Cc1ccc(-c2cc(C(=O)*)ccc2C#N)cc1; X19 = N#Cc1ccc(-c2cccc(C(=O)*)c2)nc1; X22 = COc1cccc(-c2cc(C(=O)*)ccn2)c1; X35 = N#Cc1ccc(C(=O)*)cc1-c1ccccc1; X16 = O=C(c1ccc(-c2ccccc2)nc1)*; Dab = NCC[C@H](N)C(=O)O; Dap = NC[C@H](N)C(=O)O

Assays:
[1] = system: AB-1649, polymyxin-resistant clinical isolate of Acinetobacter baumannii; type: cell-based; conditions: AB-1649, polymyxin-resistant clinical isolate of
Summary of the method: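 Broth dilution MIC per CLSI against the polymyxin-resistant A. baumannii isolate, 2-fold dilutions, overnight incubation, visual read of lowest concentration inhibiting growth. Run in duplicate, lower value reported when within 2-fold; MBC per CLSI M26-A guideline.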

[2] = system: AB-3167, clinical isolate of Acinetobacter baumannii; type: cell-based; conditions: AB-3167, clinical isolate of
Summary of the method: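 Broth dilution MIC per CLSI (M7-A8, M100-S20, M26-A for bactericidal), 2-fold dilution series, overnight incubation, visual read of lowest concentration inhibiting growth versus drug-free control. Duplicates run; lower value reported if within 2-fold, otherwise repeated. Compounds tested as trifluoroacetate salts; QC strains and reference compounds required in range.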

[3] = system: PA-1646, polymyxin-resistant clinical isolate of Pseudomonas aeruginosa; type: cell-based; conditions: PA-1646, polymyxin-resistant clinical isolate of
Summary of the method: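 Broth dilution MIC per CLSI with 2-fold concentration steps, read visually after overnight incubation as lowest concentration inhibiting growth; duplicates within 2-fold, lower value reported, with QC strains and reference compounds. Compounds tested as trifluoroacetate salts, polymyxin B as sulfate.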

[4] = system: Pseudomonas aeruginosa strain PA01; type: cell-based; conditions: strain
Summary of the method: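 CLSI broth dilution against P. aeruginosa PA01 with two-fold concentration steps and overnight incubation; MIC is lowest concentration visibly inhibiting growth versus drug-free control, in mg/L. Compounds tested as trifluoroacetate salts, in duplicate, lower value reported if within 2-fold; control organisms and reference compounds included.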

[5] = system: KP-5016, ESBL+ clinical isolate of Klebsiella pneumoniae (SHV-5); test: Minimum inhibitory concentration (MIC, CLSI), KP-5016; type: cell-based; conditions: K. pneumoniae KP-5016; overnight incubation, lower of duplicate values; trifluoroacetate salt (Example 1 and PMB sulfate)
Method: (§1) Minimum bactericidal concentration (MBC, mg/L), minimum inhibitory concentration (MIC, mg/L), and human renal proximal tubule epithelial cell line cytotoxicity concentration 50% (hRPTEC, TC50, micromolar) for compounds of Formula I are listed in Table 2. The compounds of Formula I were tested as the corresponding trifluoroacetate salt except for Example 1 which was tested as the sulfate salt. For Table 2 below: PMB=polymyxin B as the sulfate salt (Bedford Laboratories, pharmaceutical grade); PMB1=polymyxin B1 as the trifluoroacetate salt; Nona=polymyxin B nonapeptide as the trifluoroacetate salt. PMB1 and Nona were prepared using the solid phase methodology described in the experimental section herein.
(§2) The in vitro antibacterial activity of compounds of Formula I was evaluated by MIC testing according to Clinical and Laboratory Standards Institute (CLSI). See: Clinical and Laboratory Standards Institute. Methods for Dilution Antimicrobial Susceptibility Tests for Bacteria that Grow Aerobically; Approved Standard-Eighth Edition. CLSI document M7-A8 [ISBN 1-56238-689-1]. Clinical and Laboratory Standards Institute, 940 West Valley Road, Suite 1400, Wayne, Pa. 19087-1898 USA, 2006; also Clinical and Laboratory Standards Institute. Performance Standards for Antimicrobial Susceptibility Testing; Twentieth Informational Supplement. CLSI document M100-S20 [ISBN 1-56238-716-2]. Clinical and Laboratory Standards Institute. Methods for Determining Bactericidal Activity of Antimicrobial Agents; Approved Guideline. CLSI document M26-A (ISBN 1-56238-384-1). CLSI, 940 West Valley Road, Suite 1400, Wayne, Pa. 19087-1898 USA, 1999.
(§3) The MIC determination is a standard laboratory method for evaluating the antibacterial activity of a compound. The MIC represents the lowest drug concentration that inhibits visible growth of bacteria following overnight incubation. […] Typically, the drug concentration range is broken down into 2-fold increments (e.g. 0.06 mg/L, 0.12 mg/L, 0.25 mg/L, 0.50 mg/L, 1.0 mg/L, etc.) and the various drug concentrations are all individually incubated overnight with approximately the same number of bacteria. The MIC is then determined by visually inspecting the drug effect at each concentration, and identifying the lowest drug concentration that has inhibited bacterial growth as compared to the drug free control. Typically, bacteria continue to grow at drug concentrations lower than the MIC and don't grow at concentrations at and above the MIC.
(§4) The MIC values described in Table 2 below were derived from assays wherein each test compound was evaluated in duplicate. In cases where the duplicate values varied by 0-2-fold, the lower of the two values was reported below. Generally speaking, if the duplicate values varied by more than 2-fold, the assay was considered non-valid and was repeated until the variation between duplicate runs was ≦2-fold. In line with the CLSI guidelines referred to above, both control organisms and reference compounds were utilized in each MIC assay to provide proper quality control. MIC values generated with these control organisms and reference compounds were required to fall within a defined range for the assay to be considered valid and be included herein. Those skilled in the art will recognize that MIC values can and do vary from experiment to experiment. Generally speaking, it should be recognized that MIC values often vary +/−2-fold from experiment to experiment. While a single MIC is reported for each compound and each microorganism, the reader should not conclude that each compound was only tested once. Several of the compounds were subjected to multiple tests. The data reported in Table 2 is reflective of the compounds relative activity and different MICs may have been generated on these occasions in line with the guidelines described above.
The following bacterial strains were used in these MIC determinations: […]

[6] = system: KP-3700, ESBL+ clinical isolate of Klebsiella pneumoniae; test: Minimum inhibitory concentration (MIC, CLSI), KP-3700; type: cell-based; conditions: K. pneumoniae KP-3700; overnight incubation, lower of duplicate values; trifluoroacetate salt (Example 1 and PMB sulfate)
Method: as §1, §2, §3, §4
The following bacterial strains were used in these MIC determinations:
KP-3700 is an ESBL+clinical isolate of Klebsiella pneumoniae obtained in 2006; and […]

[7] = system: EC-1, mouse virulent strain of Escherichia coli; type: cell-based; conditions: E. coli EC-1; overnight incubation, lower of duplicate values; trifluoroacetate salt (Example 1 and PMB sulfate)
Summary of the method: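 Broth dilution per CLSI with 2-fold concentration steps and overnight incubation. MIC is the lowest concentration visibly inhibiting growth versus drug-free control, run in duplicate with the lower value reported. Duplicates differing by >2-fold were repeated, and control strains and reference compounds had to fall within range.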

[8] = Cytotoxicity assay (LDH release), hRPTEC; type: cell-based, human; conditions: human
Summary of the method: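 hRPTEC grown 72 h in REGM, then exposed to compounds at 100, 67, 44, 30, 20 and 13 micromolar for 24 h at 37° C, 5% CO2. LDH released into supernatant measured; TC50 (micromolar) derived. Compounds tested as trifluoroacetate salts unless otherwise noted.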

[9] = system: PA-1646, polymyxin-resistant clinical isolate of Pseudomonas aeruginosa; type: cell-based; conditions: PA-1646, polymyxin-resistant clinical isolate of; remark: listed apart in the source
Summary of the method: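 Broth dilution MIC and bactericidal (MBC) testing per CLSI methods (M7-A8, M100-S20, M26-A) against polymyxin-resistant clinical P. aeruginosa isolate PA-1646. Compounds tested as trifluoroacetate salts, one as sulfate salt; values in mg/L.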

[10] = system: AB-1649, polymyxin-resistant clinical isolate of Acinetobacter baumannii; type: cell-based; conditions: AB-1649, polymyxin-resistant clinical isolate of; remark: listed apart in the source
Summary of the method: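 MIC and MBC were measured by CLSI broth dilution methods (M7-A8, M100-S20, M26-A) against a polymyxin-resistant clinical isolate and reported in mg/L. Compounds were tested as trifluoroacetate salts, with one exception tested as the sulfate.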

Row | Structure (SMILES) | AB-1649 MIC [1] [µg/mL] | AB-3167 MIC [2] [µg/mL] | PA-1646 MIC [3] [µg/mL] | PA01 MIC [4] [µg/mL] | KP-5016 MIC [5] [µg/mL] | KP-3700 MIC [6] [µg/mL] | EC-1 MIC [7] [µg/mL] | CC50 at 24 h [8] [µM] | PA-1646 MBC [9] [µg/mL] | AB-1649 MBC [10] [µg/mL]
1 | CC(C)C[C@@H]1NC(=O)[C@@H](Cc2ccccc2)NC(=O)[C@H](CCN)NC(=O)[C@@H](NC(=O)[C@H](CN)NC(=O)[C@H](CO)NC(=O)[C@H](CCN)NC(=O)c2ccnc(-c3ccccc3)c2)CCNC(=O)[C@H]([C@@H](C)O)NC(=O)[C@H](CCN)NC(=O)[C@H](CCN)NC1=O [Example 46] ({Isonicotinoyl(2-Ph)}-[Dab]S[Dap][Dab][Dab][dF]L[Dab][Dab]T; lactam 4-C) | 4 | 1 | 64 | 0.5 | 64 | 0.5 | 0.25 | 98 |  | 
2 | CC(C)C[C@@H]1NC(=O)[C@@H](Cc2ccccc2)NC(=O)[C@H](CCN)NC(=O)[C@@H](NC(=O)[C@H](CN)NC(=O)[C@@H](NC(=O)[C@H](CCN)NC(=O)c2cccc(-c3ccc(C#N)cn3)c2)[C@@H](C)O)CCNC(=O)[C@H]([C@@H](C)O)NC(=O)[C@H](CCN)NC(=O)[C@H](CCN)NC1=O [Example 26] (X19-[Dab]T[Dap][Dab][Dab][dF]L[Dab][Dab]T; lactam 4-C) | 4 | 1 | 4 | 1 |  |  | 0.25 | 77 | 8 | 4
3 | COc1cccc(-c2cc(C(=O)N[C@@H](CCN)C(=O)N[C@H](C(=O)N[C@@H](CN)C(=O)N[C@H]3CCNC(=O)[C@H]([C@@H](C)O)NC(=O)[C@H](CCN)NC(=O)[C@H](CCN)NC(=O)[C@H](CC(C)C)NC(=O)[C@@H](Cc4ccccc4)NC(=O)[C@H](CCN)NC3=O)[C@@H](C)O)ccn2)c1 [Example 29] (X22-[Dab]T[Dap][Dab][Dab][dF]L[Dab][Dab]T; lactam 4-C) | 4 | 0.5 | 4 | 1 |  |  | 0.5 | 70 | 32 | 4
4 | CC(C)C[C@@H]1NC(=O)[C@@H](Cc2ccccc2)NC(=O)[C@H](CCN)NC(=O)[C@@H](NC(=O)[C@H](CN)NC(=O)[C@@H](NC(=O)[C@H](CCN)NC(=O)c2ccc(C#N)c(-c3ccccc3)c2)[C@@H](C)O)CCNC(=O)[C@H]([C@@H](C)O)NC(=O)[C@H](CCN)NC(=O)[C@H](CCN)NC1=O [Example 2] (X35-[Dab]T[Dap][Dab][Dab][dF]L[Dab][Dab]T; lactam 4-C) | 0.5 | 0.25 | 2 | 0.25 |  |  | 0.125 | 39 | 4 | 0.5
5 | CC(C)C[C@@H]1NC(=O)[C@@H](Cc2ccccc2)NC(=O)[C@H](CCN)NC(=O)[C@@H](NC(=O)[C@H](CN)NC(=O)[C@@H](NC(=O)[C@H](CCN)NC(=O)c2ccc(C#N)c(-c3ccc(C#N)cc3)c2)[C@@H](C)O)CCNC(=O)[C@H]([C@@H](C)O)NC(=O)[C@H](CCN)NC(=O)[C@H](CCN)NC1=O [Example 13] (X18-[Dab]T[Dap][Dab][Dab][dF]L[Dab][Dab]T; lactam 4-C) | 2 | 0.25 | 2 | 0.5 |  |  | 0.25 | 58 | 4 | 2
6 | CC(C)C[C@@H]1NC(=O)[C@@H](Cc2ccccc2)NC(=O)[C@H](CCN)NC(=O)[C@@H](NC(=O)[C@H](CN)NC(=O)[C@@H](NC(=O)[C@H](CCN)NC(=O)c2ccc(-c3ccccc3)nc2)[C@@H](C)O)CCNC(=O)[C@H]([C@@H](C)O)NC(=O)[C@H](CCN)NC(=O)[C@H](CCN)NC1=O [Example 27] (X16-[Dab]T[Dap][Dab][Dab][dF]L[Dab][Dab]T; lactam 4-C) | 4 | 0.25 | 2 | 0.5 |  |  | 0.125 | 73 | 4 | 4
